Experimental data reported in patent US20100048605A1, “SYNERGISTIC EFFECTS OF COMBINATIONS OF N[…] OPIOIDS FOR THE TREATMENT OF PAIN” (University of Kentucky Research Foundation, priority 2006, published 2010).

Tests used:
[1] = test system: rodent model of nociceptive pain (tail-flick test); assay: Tail-flick test after intrathecal (IT) administration; assay type: in vivo, Sprague Dawley male rats; conditions: rat
Description: Chronic catheterization of the spinal subarachnoid space was performed in Sprague Dawley male rats (about 90 days old, 350 g; Harlem, IN) according to minor modification of the method described by [Yaksh T and Rudy T. “Chronic catheterization of the spinal subarachnoid space” Physiol Behav (1976) 17:1031-1036]. Briefly, a 21 cm long P-10 polyethylene tubing (volume 10 mcl) which extended 8.5 cm beyond an incision in the atlanto-occipital membrane was inserted and secured to the scull with acrylic cement. The catheter rested in the vicinity of T-12 at the rostral face of the lumbar cord enlargement. The study was initiated 7 days after IT catheterization.
S(−)-nornicotine perchlorate (10 mcg), R(+)-nornicotine perchlorate (10 mcg) and morphine sulfate (0.5 mcg) were dissolved in saline and administered by the intrathecal (IT) route (10 mcl). Groups of rats was treated with S(−)-nornicotine alone and in combination with morphine, […] alone and in combination with morphine, morphine alone, and saline (10 mcl). The responses to acute thermal stimuli were determined using the tail-flick test (a baseline equal to about 2-3 seconds, cut-off time of 10 seconds). […] Data are presented as time courses of the TFL (normalized for baseline) and areas under the curve (AUC0-180min). All data are mean±SEM (n=4-6 rats). Doses refer to salts.

[2] = test system: rodent model of nociceptive pain (tail-flick test); assay: Tail-flick test after intraperitoneal (IP) administration; assay type: in vivo, Sprague Dawley male rats; conditions: rat
Description: Sprague Dawley (about 90 days old, 350 g; Harlem, IN) male rats were used. S(−)-nornicotine fumarate (2.57 mg/kg), R(+)-nornicotine fumarate (2.57 mg/kg) and morphine sulfate (3 mg/kg) were dissolved in saline and injected intraperitonealy (IP, 1 ml/kg). Each rat received three treatments: either S(−)-nornicotine alone, morphine alone and S(−)-nornicotine followed by morphine or R(+)-nornicotine alone, morphine alone and R(+)-nornicotine followed by morphine. Injections were made in randomized fashion at 48 hour intervals. The responses to acute thermal stimuli were determined using the tail-flick test [D'Amour F. E., Smith D. L. “A method for determining loss of pain sensation” J Pharmacol Exp Ther (1941), 72:74-79]. Tail-flick latency (TFL) was measured by recording the time from the onset of the heat stimulus to the tail to withdrawal of the tail from the heat source, using a standard tail-flick apparatus (IITC, Life Science). The sensitivity of the instrument was adjusted to provide a baseline about 2 seconds. Cut-off time of 10 seconds was used to avoid tail damage. TFL were determined prior to (twice, about 15 minutes apart) and at […] after administration. Data were normalized for pre-injection baseline. Areas under the curve (AUC0-180min) were calculated for normalized data by trapezoidal rule. […]

[3] = following peripheral administration of nicotine; cited from earlier work
[4] = compared with nicotine; cited from earlier work
[5] = following repeated nicotine dosing; cited from earlier work
[6] = humans; cited from earlier work

SMILES	analgesia of S(−)-nornicotine alone (tail-flick latency, AUC0-180min) ([1]; S(−)-nornicotine perchlorate 10 mcg alone)	effect on the analgesic effect of morphine (tail-flick latency, AUC0-180min) ([1]; S(−)-nornicotine perchlorate 10 mcg with morphine sulfate 0.5 mcg)	analgesia of S(−)-nornicotine alone (tail-flick latency, AUC0-180min) ([2]; S(−)-nornicotine fumarate 2.57 mg/kg alone)	effect on the analgesic effect of morphine (tail-flick latency, AUC0-180min) ([2]; S(−)-nornicotine fumarate 2.57 mg/kg followed by morphine sulfate 3 mg/kg)	residence in the rat's brain [3] [min]	bioavailability (in words) [4]	accumulation in the brain compared to nicotine [5]	residence in the rat's brain relative to nicotine [3]	plasma half-life [6] [h]
c1cncc([C@@H]2CCCN2)c1 [S(−)-nornicotine]	did not produce analgesia	significantly enhanced	did not produce analgesia	significantly enhanced					
CN1CCCC1c1cccnc1 (stereo not shown) [nicotine, reference compound]					52				
c1cncc([C@@H]2CCCN2)c1 [nornicotine]					166	superior	about 4 fold	about 3 times	8
